The subject of assay [1] is Mks. Put plainly: Shear-flow PPT and PLP generation from Mks treated with caspase inhibitors. The format is cell-based, human. Particulars: 10 μM inhibitor, shear flow 2.5 dyn/cm^2 for 0.5 hour. On the procedure: (§1) Rectangular flow slides (μ-Slide 1^0.6 Luer, ibidi USA) were coated with 50 μg/mL vWF, and ca. 300,000 cultured Mks were seeded into each slide. Mks on slides were cultured overnight (21 hours) before being exposed to shear flow. Medium (IMDM supplemented with 10% BIT9500, 50 ng/mL TPO, 50 ng/mL rhSCF, 0.5 μg/mL hLDL and 6.25 mM nicotinamide) was perfused over Mks on slides by two syringe pumps (Dual NE-4000 pump; New Era Pump Systems) to achieve the desirable shear-stress level. For BrdU incorporation assays, the medium was supplemented with 10 μM BrdU (BD). During shear flow, some Mks were detached from the slide surface and released into the circulating medium. These are considered as non-adherent Mks. Adherent Mks were harvested for analysis using non-enzymatic cell dissociation buffer (Sigma-Aldrich). In some experiments, adherent Mks were fixed with 2% paraformaldehyde directly on slides and processed for immunofluorescence analysis. In some experiments, Mks were treated with caspase inhibitors, 10 μM z-VAD.fmk (Bachem) or 10 μM z-DEVD.fmk (Bachem) starting on d9. Inhibitor-treated Mks were seeded into flow slides at d9 or d11, were exposed to shear flow (2.5 dyn/cm^2 for 0.5 hour) in medium supplemented with the same inhibitor, and were harvested for PPT, PLP and CD41^+ microparticle counting.
Large cells were excluded from PLP preparations by centrifugation at 150× g for 10 minutes. PLPs were then pelleted by centrifugation at 1000× g for 10 minutes from the PLP-enriched supernatant. After one wash, PLPs were resuspended in Tyrode's buffer and used in platelet-stimulation assays. The number of PLPs and PPTs per slide was measured using a Multisizer™ 3 Coulter Counter (Beckman Coulter).
It has been shown that activation of caspase-3 and 9 is required for PPT formation. Here we wanted to investigate if shear stress affects caspase-3 activation in Mks. We chose caspase-3 as a marker of late apoptosis to complement our Annexin V studies above, which pertain to early apoptotic events. First, we confirmed that caspase-3 in indeed activated during in vitro Mk maturation with our culture protocol. […] We also observed a correlation between the activation level of caspase-3 in Mks (represented as the ratio of MFI of active caspase-3 over isotype control) and PPT formation (FIG. 4C), which is consistent with previous studies discussed above. […] Exposure of Mks for 2 hours to 1 dyn/cm^2 enhanced caspase-3 activation both at d10 and d12 (FIG. 4D) by 1.7 to 5.6 fold depending on the donor and day. Since, as discussed, caspase-3 activation is necessary for PPT formation, one mechanism by which shear stress may promote PPT formation (see below) is by enhancing caspase-3 activation. To investigate this hypothesis, Mks were treated with 10 μM z-VAD.fmk (pan-caspase inhibitor) or z-DEVD.fmk (caspase-3 inhibitor) and were then exposed to shear flow. After flow application, PLPs (d=1-3 μm) and PPTs (d=3-10 μm) were harvested and counted. The effect of shear stress on particle generation was assessed using the ratio of PLP or PPT number from one slide of Mks under flow conditions over that under static conditions. […] However, at d12, both of z-VAD fmk and z-DEVD.fmk decreased both the PPT and PLP ratios (FIGS. 4E and 4F). […] At d12 when Mks produced more PPTs and stared to form a significant number of PLPs, the effect of shear on PPT and PLP generation was attenuated by caspase inhibitors.

Assay [2] has as its system Mks. Kind of assay: Shear-enhanced MkMP generation from Mks treated with caspase inhibitors. The format is cell-based, human. Particulars: d10 and d12 Mks, 10 μM inhibitor, shear flow 2.5 dyn/cm^2 for 0.5 hour. On the procedure:
as §1, with “Inhibitor-treated Mks were seeded into flow slides at d9 or d11, were exposed to shear flow (2.5 dyn/cm^2 for 0.5 hour) in medium supplemented with the same inhibitor, and were harvested for PPT, PLP and CD41^+ microparticle counting.” left out
For both static cultures and cultures exposed to shear flow, Mk cells were removed from the culture medium by centrifugation (150× g for 10 minutes). […] Concentrations of MkMPs (and of PMPs and Mks) were measured by flow cytometry using 1.34 μm microbeads (Sphero Tech) as standard. […]

The structures appear in SMILES notation. Residues, ends and D or L forms follow the SMILES beside them. *: point of attachment. Cbz = O=C(OCc1ccccc1)*; CH2F = FC*

The results in this text go back to patent publication US10538738B2, “Megakaryocytic particles and microparticles for cell therapy and fate modification of stem and progenitor cells” (priority 2014, dated 2020).

Regarding `COC(=O)CC[C@H](NC(=O)[C@H](CC(=O)OC)NC(=O)OCc1ccccc1)C(=O)N[C@H](C(=O)N[C@@H](CC(=O)OC)C(=O)CF)C(C)C` [z-DEVD.fmk], in the assay on Mks [1] (d10 Mks), the “PLP ratio (PLP number under flow conditions over static conditions)” value (shortened to “PLP ratio”) was “decreased only the PPT ratio” and the “PPT ratio (PPT number under flow conditions over static conditions)” value (“PPT ratio” below) is “decreased”. Moreover, in the assay with Mks [1] (d12 Mks), the “PLP ratio” value is “decreased” and the “PPT ratio” value is on record as “decreased”. For the same molecule, in the assay with Mks [2], the “Ratio of number of MkMPs under shear flow over static conditions” value is on record as “attenuated the effect of shear stress”.
In the case of `COC(=O)C[C@H](NC(=O)[C@H](C)NC(=O)[C@@H](NC(=O)OCc1ccccc1)C(C)C)C(=O)CF` [z-VAD.fmk] (Cbz-Val-Ala-Asp(OMe)-CH2F), in the assay on Mks [1] (d10 Mks), the “PLP ratio” value is “no statistically significant effect” and the “PPT ratio” value is listed as “no statistically significant effect”. In the assay on Mks [1] (d12 Mks), the “PLP ratio” value is “decreased” and the “PPT ratio” value was “decreased”. In addition, in the assay with Mks [2], the “Ratio of number of MkMPs under shear flow over static conditions” value is listed as “only treatment with caspase-3 inhibitor (z-DEVD fmk) attenuated the effect of shear stress”.
